Experimental findings from US20250143995A1, “ACTIVE AGENT MODULATING THE ACTIVITY OF AN ION CHANNEL FOR USE IN REGULATION OF SKIN PIGMENTATION” (Cutaneon - Skin & Hair Innovations GmbH, priority 2022, published 2025) are described below.

SMILES strings stand for the structures.

What all share (type): cell-based
The subject of assay [1] is human skin organ culture. Nature of the assay: Epidermal melanin by Fontana Masson histochemistry in ex vivo human skin organ culture. How it is done: Samples of human abdominal, temporal, and occipital skin were obtained with written patient consent and under ethical approval from healthy adult human subjects during elective plastic surgery performed for cosmetic reasons. Full-thickness human skin samples were prepared as 4-6 mm punches, placed on filter paper, and cultured at the air-liquid interphase under serum-free conditions in William's E medium supplemented only with insulin, hydrocortisone and L-glutamine, as described previously.
For topical application of 2,5-dimethylpyrazine (DMP) (Sigma), a TRPM5 activator, a stock was prepared in ethanol and dissolved at 37° C. at a final concentration of 12.5 mM in a 50% v/v solution of Isopropanol in PBS containing 1 g/mL of Polyethylene glycol 6000. For topical application of triphenylphosphine oxide (TPPO) (Sigma), and TRPM5 inhibitor, a stock was prepared in ethanol and dissolved at 37° C. at a final concentration of 1.5 mM in a 50% v/v solution of Isopropanol in PBS containing 1 g/mL of Polyethylene glycol 6000. […]
(§1) Images were then obtained with a digital microscope (Keyence). Quantitative histomorphometric analysis was performed by assessing the relative intensity and the area of melanin stain in standardized reference areas with ImageJ (NIH; Bethesda, MD, USA). Briefly, for each parameter evaluated, multiple non-consecutive skin sections (at least 280 μm apart from each other) per punch biopsy were stained. Two skin punch biopsies were analyzed per experimental group unless indicated otherwise. The melanin content was then calculated based on the product of the fraction of area occupied by melanin and the mean shade of gray of the melanin, as described in detail elsewhere. […]
For Fontana Masson stain, ethanol/acetic acid-fixed human skin/HF frozen sections were rinsed in two and three washes of Tris-buffered saline and distilled water, respectively. […] Image acquisition and quantitative histomorphometric analysis were performed similar to as described for the Warthin-Starry technique.

Assay [2] relates to human skin organ culture. The assay can be described thus: Epidermal melanin by Warthin-Starry histochemistry in ex vivo human skin organ culture. The following applies: topical DMP 12.5 mM. The method, then:
(§2) Samples of human abdominal, temporal, and occipital skin were obtained with written patient consent and under ethical approval from healthy adult human subjects during elective plastic surgery performed for cosmetic reasons. Full-thickness human skin samples were prepared as 4-6 mm punches, placed on filter paper, and cultured at the air-liquid interphase under serum-free conditions in William's E medium supplemented only with insulin, hydrocortisone and L-glutamine, as described previously. […]
as §1

The next assay deals with tyrosinase. The assay can be described thus: In situ tyrosinase activity in ex vivo human skin organ culture. The following applies: after 3 days. The method, then:
as §2, §1

Another assay concerns gp100. Nature of the assay: gp100-specific immunoreactivity in ex vivo human skin organ culture. The conditions noted are these: after 3 days. How it is done: as §2, §1
[3] abbreviates: topical DMP 12.5 mM, compared to vehicle.
[4] abbreviates: TPPO 1.5 mM combined with DMP 12.5 mM, topical.

With `Cc1cnc(C)cn1` [DMP, 2,5-dimethylpyrazine], the “melanin content in the basal layer and in the suprabasal layers (Fontana-Masson technique)” value in the assay on human skin organ culture [1] (topical DMP 12.5 mM, 3 days) is given as “increased”. Also, the “epidermal melanin content (Fontana-Masson technique)” value in the assay with human skin organ culture [1] (topical DMP 12.5 mM, after 3 days, compared to vehicle) is given as “markedly increases”. For the same compound, the “melanin content in the basal layer and in the suprabasal layers (Warthin-Starry technique)” value in the assay on human skin organ culture [2] (3 days) is “increased”. In the assay on human skin organ culture [2] (after 3 days, compared to vehicle), the “epidermal melanin content (Warthin-Starry technique)” value is on record as “markedly increases”. In addition, the “intensity level of tyrosinase activity in the basal epidermal layers” value in the assay on tyrosinase (setting [3]) is recorded as “markedly increases”. For the same compound, in the assay on gp100 (setting [3]), the “intensity level of gp100-specific IR in the basal epidermal layers” value was “markedly increases”.
With `O=P(c1ccccc1)(c1ccccc1)c1ccccc1` [TPPO, triphenylphosphine oxide], the “effect on the DMP-induced increase of epidermal melanin content (Fontana-Masson technique)” value in the assay on human skin organ culture [1] (TPPO 1.5 mM combined with DMP 12.5 mM, topical, after 3 days) was “prevented the effect”. For the same compound, the “effect on the DMP-induced increase of tyrosinase activity in the basal epidermal layers” value with tyrosinase (setting [4]) is on record as “prevented the effect”. In the assay on gp100 (setting [4]), the “effect on the DMP-induced increase of gp100-specific IR in the basal epidermal layers” value is recorded as “prevented the effect”.
